Experimental data as given in ChEMBL document CHEMBL2311320, “A-ring modification of SCH 900229 and related chromene sulfone γ-secretase inhibitors” (Bioorg Med Chem Lett, 2013).

Experiments:
Assay type in all cases: cell-based, Homo sapiens
[1] = biological target: Gamma-secretase; test: Inhibition of gamma-secretase (unknown origin) expressed in HEK293 cells co-expressing […] mutant assessed as reduction of amyloid beta-40 production
[2] = biological target: Gamma-secretase; test: Inhibition of gamma-secretase (unknown origin) expressed in HEK293 cell membrane co-expressing […] mutant assessed as reduction of amyloid beta-40 production
[3] = biological target: Gamma-secretase; test: Inhibition of gamma-secretase (unknown origin) expressed in HEK293 cells co-expressing […] mutant assessed as reduction of amyloid beta-42 production

Structure (SMILES) | IC50 [1] | IC50 [2] | IC50 [3]
O=C1C=CC(F)(F)C2=C1[C@]1(S(=O)(=O)c3ccc(C(F)(F)F)cc3)CCC[C@@H](CNS(=O)(=O)C(F)(F)F)[C@@H]1CO2 | 330 nM | 78 nM | 200 nM
CS(=O)(=O)CC[C@@H]1CCC[C@@]2(S(=O)(=O)c3ccc(C(F)(F)F)cc3)C3=C(OC[C@@H]12)C(F)(F)C=CC3=O | 130 nM | 1.9 nM | 49 nM
CC[C@@H]1C[C@@H]2[C@@H](CC[C@@]3(S(=O)(=O)c4ccc(C(F)(F)F)cc4)c4c(F)ccc(F)c4OC[C@@H]23)NS1(=O)=O | 5 nM | 1.9 nM | 2 nM
O=C1C=CC(F)(F)C2=C1[C@]1(S(=O)(=O)c3ccc(C(F)(F)F)cc3)CC[C@@H](NS(=O)(=O)C3CC3)C[C@@H]1CO2 | 280 nM | 6.8 nM | 110 nM
CC[C@@H]1C[C@@H]2[C@@H](CC[C@@]3(S(=O)(=O)c4ccc(C#N)cc4)C4=C(OC[C@@H]23)C(F)(F)C=CC4=O)NS1(=O)=O | 110 nM | 3.5 nM | 31 nM
CC[C@@H]1C[C@@H]2[C@@H](CC[C@@]3(S(=O)(=O)c4ccc(C(F)(F)F)cc4)C4=C(OC[C@@H]23)C(F)(F)C=CC4=O)NS1(=O)=O | 46 nM | 3.9 nM | 25 nM
O=S(=O)(NC[C@@H]1CC[C@@]2(S(=O)(=O)c3ccc(C(F)(F)F)cc3)c3c(F)ccc(F)c3OC[C@H]2C1)C1CC1 | 6.8 nM | 92 nM | 19 nM

The remaining lines, values ahead:

IC50 [1] | IC50 [2] | IC50 [3] | Structure (SMILES)
11 nM | 15 nM | 4 nM | CS(=O)(=O)CC[C@@H]1OCC[C@@]2(S(=O)(=O)c3ccc(C(F)(F)F)cc3)c3c(F)ccc(F)c3OC[C@@H]12
4 nM | 4.7 nM | 2 nM | CC[C@@H]1C[C@@H]2[C@@H](CC[C@@]3(S(=O)(=O)c4ccc(C#N)cc4)c4c(F)ccc(F)c4OC[C@@H]23)NS1(=O)=O
26 nM | 1.2 nM | 11 nM | CS(=O)(=O)CC[C@@H]1OCC[C@@]2(S(=O)(=O)c3ccc(Cl)cc3)C3=C(OC[C@@H]12)C(F)(F)C=CC3=O
4 nM | 1.3 nM | 1 nM | CS(=O)(=O)CC[C@@H]1OCC[C@@]2(S(=O)(=O)c3ccc(Cl)cc3)c3c(F)ccc(F)c3OC[C@@H]12
63 nM | 43 nM | 21 nM | CS(=O)(=O)CC[C@@H]1CCC[C@@]2(S(=O)(=O)c3ccc(C(F)(F)F)cc3)c3c(F)ccc(F)c3OC[C@@H]12
73 nM | 54 nM | 32 nM | O=S(=O)(NC[C@@H]1CCC[C@@]2(S(=O)(=O)c3ccc(C(F)(F)F)cc3)c3c(F)ccc(F)c3OC[C@@H]12)C(F)(F)F
56 nM | 1.8 nM | 27 nM | CS(=O)(=O)CC[C@@H]1OCC[C@@]2(S(=O)(=O)c3ccc(C(F)(F)F)cc3)C3=C(OC[C@@H]12)C(F)(F)C=CC3=O
1600 nM | 21 nM | 410 nM | CS(=O)(=O)CC[C@@H]1OCC[C@@]2(S(=O)(=O)c3ccc(C#N)cc3)C3=C(OC[C@@H]12)C(F)(F)C=CC3=O
25 nM | 66 nM | 9 nM | CS(=O)(=O)CC[C@@H]1OCC[C@@]2(S(=O)(=O)c3ccc(C#N)cc3)c3c(F)ccc(F)c3OC[C@@H]12
